Assay results published in patent US10400010B2, “Structure-based peptide inhibitors of P53 aggregation as a new approach to cancer therapeutics” (THE REGENTS OF THE UNIVERSITY OF CALIFORNIA, priority 2013, dated 2019).
“Also recorded” adds a separate entry of the source.

Assays:
[1] = system: cancer cells bearing misfolded/aggregation-prone mutant p53; assay: Cell viability, standard MTS assay, 2D culture; format: cell-based; conditions: 24 hours
Method: (§1) B. and C. show one representative case of primary cells from ovarian cancer.
INH-1R caused cell death in a dose dependent manner with less than 50% of cancer cells surviving after only 24 hours of treatment with a dose of 10 μM in a 2D culture system as detected by a standard MTS assay (FIG. 7A). […] In this case cells were plated in 1:1 mixture of PrEGM:matrigel. After cell layer solidified, cells were overlaid with warm PrEGM media containing either the inhibitor or a scrambled control peptide at concentration ranging from 0.1 to 10 μM for 5 to 7 days.

[2] = Serum concentration by MRM mass spectrometry (pharmacokinetic profile); format: in vivo, Nude mice
Method: Nude mice were injected in the flank with OVCAR-3 cells and the resulting xenografts were allowed to grow for two weeks. The mice were then treated for three days via IP with 15 mg/kg of INH-1R CPP peptide or scrambled control peptide. They were divided in groups of two and sacrificed at 1, 2, 4, 8, 12 and 24 hours post final peptide injection. Two naïve mice were sacrificed before treatment to obtain a reference value. Peak serum concentration of INH-1R CPP (as well as control peptide) was detected at 1 hour post injection. Average of two mice are shown.
The peptide concentration decreased to approximately 0.3 μM 2 hours post infusion, and remained stable for up to 12 hours (FIG. 10). Given the relative stability of the peptide in serum, IV administration is an acceptable alternative route of administration.

[3] = system: OVCAR-3 cells bearing the aggregation prone p53 R248Q mutation (xenograft); assay: OVCAR-3 xenograft tumor proliferation in vivo; parameters: species or system NOD/SCID mice
Method: A. Images of the xenografts from mice (n=3 for each group, one mouse had 2 xenografts) treated with INH-1R CPP, a scrambled peptide control, or vehicle for 14 days. […] C. Tumor volume was estimated daily.
In our in vivo studies, we attempted to mimic a post-surgical debulking situation in which patients with minimal residual tumor mass are administered chemotherapy. NOD/SCID mice were injected subcutaneously with OVCAR-3 cells bearing the aggregation prone p53 R248Q mutation and treated intraperitoneally with 15 mg/kg of either INH-1R as a single therapeutic agent, a control scrambled peptide, or vehicle daily for 14 days (FIG. 9).

[4] = system: primary cells from ovarian cancer; assay: Apoptosis (AnnexinV stain) and proliferation (Ki67 stain); format: cell-based; conditions: increasing dosage
Source text: as §1

[5] = system: cancer cell lines (OVCAR-3, CAOV-3, WiDr, Detroit 562) and primary cells from ovarian cancer patients; assay: Cell entry and co-localization of FITC labeled inhibitor by fluorescence microscopy; format: cell-based, human; conditions: 24 hours
Source text: INH-1R CPP was covalently linked to a FITC fluorescent label and added to different cancer cell lines or primary cells directly obtained from ovarian cancer patients (as depicted here). […] The cell nuclei are stained with Hoechst 33342 (blue), while p53 is recognized by an anti-p53 antibody and stained in red. […] Protein aggregates are stained with the commercially available OC antibody (in red).
To render the inhibitors cell permeable, the inventors fused the peptide-inhibitor panel to a nine-residue poly arginine tag through a three-residue linker, of sequence RPI, derived from endogenous p53 sequence. To confirm their ability to enter cells, the cell penetrating INH-1R inhibitor was linked to a FITC moiety in order to detect the intracellular localization of the probe by fluorescence microscopy (FIG. 4). We treated different cancer cell lines, including but not limited to OVCAR-3, CAOV-3, WiDr, Detroit 562 as well as primary cells derived from cancer patients with the FITC labeled inhibitor for 24 hours. After extensive washes to remove unbound inhibitors, the cells were fixed in formaldehyde and p53 was stained using a commercially available p53 antibody. […] Additionally, the inhibitor was found co-localized with protein aggregates as stained by the conformation specific antibody OC (Kayed et al, 2007, FIG. 4B).

[6] = system: p53 target genes p21 and Mdm2; assay: Up-regulation of p53 target genes by QPCR or RNAseq; format: cell-based; conditions: tumor cells with p53 misfolding/aggregating mutations
Source text: Specificity and efficacy of INH-1R CPP was confirmed by up-regulation of p53 target genes only in tumor cells containing p53 misfolding/aggregating mutations.

MCF-7 (WT p53) = assay: p53 re-localization in WT p53 control cells; format: cell-based; conditions: WT p53 bearing cells MCF 7
Source text: The structure-guided, rationally designed p53 amyloid inhibitors of the invention specifically target those cancer cells bearing p53 molecules having an aberrant conformation (e.g. aggregated or misfolded p53). […] We then tested the inhibitor on established cancer cell lines as well as on primary cells derived from serous ovarian cancer patients in order to confirm the clinical relevance of our findings. Our inhibitor is designed to specifically target those tumor cells expressing an altered misfolded form of p53 and should have no effect on cells bearing functional, properly folded p53 or aggregation-incompetent p53 mutants. To confirm this, we included several controls. Three established cell lines, one bearing WT p53 (MCF-7) and two which were previously characterized for their p53 aggregation status, one with a non-aggregating mutation (WiDr) and one with a p53 aggregation prone mutation (Detroit 562), were used as negative and positive controls. One of the effects of the inhibitor was to cause re-localization of p53 from the cytosolic compartment to the nucleus (FIG. 5).

[7] = molecular target: T1, p53 aggregation (segment p53252-258, LTIITLE) (Homo sapiens, UniProt P04637); assay: In vitro Thioflavin T aggregation assay; format: biochemical; conditions: different concentrations, down to molar ratio 1 inhibitor to 10 p53 molecules
T1 construct: made in house; host or cells: chemical synthesis
Source text: The aggregation of p53 is monitored via Thioflavin T assay: an increase in Thioflavin T fluorescence is detected over time due to the formation of increasing amounts of amyloid to which the dye can specifically bind. […] The sequence of this segment, LTIITLE, is SEQ ID NO: 21.
One representative in vitro assay is the thioflavin T assay shown in FIG. 3 (Naiki, H., Higuchi, K., Hosokawa, M., and Takeda, T. (1989) Fluorometric determination of amyloid fibrils in vitro using the fluorescent dye, thioflavine T. Anal. Biochem., 177, 244-249). The assay can be performed using a target sequence peptide, such as LTIITLE (SEQ ID NO: 21), or it can be performed using full-length p53 (such as recombinant p53). In both cases, the peptide (e.g. LTIITLE) (SEQ ID NO: 21) or the p53 is placed in solution with thioflavin T and increasing concentrations of inhibitor. The assay is performed in a multiwall plate (e.g. a 384 well plate). This dye is amyloid specific and is only fluorescent when bound to amyloid aggregates. The fluorescence is measured over time, e.g. with a plate reader. Inhibition is detected as a delay in the onset of aggregation and/or less total amount of aggregates formed.
The designed inhibitors were synthesized and tested in an in vitro Thioflavin T aggregation assay (FIG. 3).

OVCAR-3 cells [8] = assay: Cell death by FACS (cell size and granularity); format: cell-based; conditions: 10 μM, 24 hours
Method: Cells treated for 24 hours with either INH-1R or a control peptide were trypsinized and analyzed by FACS.

OVCAR-3 cells [9] = assay: Apoptosis and necrosis, combined Hoechst/PI/YO-PRO-1 stain; format: cell-based; conditions: 24 hours
Method: OVCAR-3 cells were treated for 24 hours with the indicated concentrations of either INH-1R CPP or a scrambled inhibitor sequence. Hoechst (blue) stains all nuclei while YO-PRO-1 (green) only stains apoptotic cells and propidium iodide (red) stains late apoptotic/necrotic cells.

[10] = system: stable cell line derived from an ovarian cancer tumor (PA40 cells); assay: p53 re-localization and refolding, DO-1 and PAb240 antibody stain; format: cell-based
Source text: A stable cell line derived from an ovarian cancer tumor is stained with the commercially available DO-1 antibody which recognizes any p53, irrespective of its structural state. […] The PAb240 commercial antibody recognizes misfolded p53, therefore loss of PAb240 antigeneicity reflects a change in the p53 population from misfolded to properly folded, functionally capable protein.
(§2) Properly folded p53 is rapidly degraded in cells as a control mechanism. Misfolded/aggregated p53 cannot be efficiently targeted for degradation therefore protein levels are high in the absence of the inhibitor. This is additional evidence of the ability of the INH-1R to generate a population of folded p53.

OVCAR-3 cell lysates = assay: p53 levels in cell lysates by Western Blot; format: cell-based; conditions: 0, 1, 5 or 10 μM, 24 hours
Source text: The properly folded p53 (see FIG. 6) can now be degraded as is WT p53. The hyperstability due to misfolding/aggregation is lost, and the protein turnover is fast.
as §2

| SMILES | Cancer cells surviving (cell viability, MTS) ([1]; 10 μM, 2D culture) | Time serum concentration remained stable ([2]; 15 mg/kg IP) | Tmax ([2]; nude, mouse, serum, 15 mg/kg IP for three days, read-out: Time of peak serum concentration post injection) [h] | Cmax ([2]; nude, mouse, serum, 15 mg/kg IP, 1 hour after injection, read-out: Serum peak concentration) [nM] | level at time molar at 2 h ([2]; nude, mouse, serum, 15 mg/kg IP, 2 hours, read-out: Serum concentration 2 hours post infusion) [nM] | p53 target genes MDM2 and p21 in residual tumor tissue ([3]; 15 mg/kg IP daily for 14 days) | Xenograft mass reduction in weight ([3]; 15 mg/kg intraperitoneally daily for 14 days) [%] | Cancer cells surviving (cell viability, MTS) ([1]; 10 µM) | Apoptosis (AnnexinV stain) [4] | Cell proliferation (Ki67 stain) [4] | Ability to enter cells (intracellular localization) [5] | Up-regulation of p53 target genes [6] | Re-localization of p53 from cytosol to nucleus (MCF-7 (WT p53)) | Inhibition of p53 aggregation (Thioflavin T fluorescence over time) [7] | Cell size and granularity (FACS) (OVCAR-3 cells [8]) | Apoptosis and necrosis (Hoechst/PI/YO-PRO-1 stain) (OVCAR-3 cells [9]) | Recognition of p53 by PAb240 (misfolded p53) [10] | Total amount of p53 (OVCAR-3 cell lysates) |
| --- | --- | --- | --- | --- | --- | --- | --- | --- | --- | --- | --- | --- | --- | --- | --- | --- | --- | --- |
| CC[C@H](C)[C@H](NC(=O)[C@H](CCCNC(=N)N)NC(=O)[C@@H](NC(=O)[C@H](CC(C)C)NC(=O)[C@@H](NC(=O)[C@@H]1CCCN1C(=O)[C@H](CCCNC(=N)N)NC(=O)[C@H](CCCNC(=N)N)NC(=O)[C@H](CCCNC(=N)N)NC(=O)[C@H](CCCNC(=N)N)NC(=O)[C@H](CCCNC(=N)N)NC(=O)[C@H](CCCNC(=N)N)NC(=O)[C@H](CCCNC(=N)N)NC(=O)[C@H](CCCNC(=N)N)NC(=O)[C@H](CCCNC(=N)N)NC(=O)[C@@H](N)CCCNC(=N)N)[C@@H](C)CC)[C@@H](C)O)C(=O)N[C@H](C(=O)N[C@@H](CC(C)C)C(=O)N[C@@H](CCC(=O)O)C(=O)O)[C@@H](C)O [INH-1R CPP, RRRRRRRRRRPILTRITLE] | Dose dependent reduction of cell viability | up to 12 hours | 1 | ~1200 | ~300 |  |  |  |  |  |  |  |  |  |  |  |  |  |
| CC[C@H](C)[C@H](NC(=O)[C@H](CCCNC(=N)N)NC(=O)[C@@H](NC(=O)[C@H](CC(C)C)NC(=O)[C@@H](NC(=O)[C@@H]1CCCN1C(=O)[C@H](CCCNC(=N)N)NC(=O)[C@H](CCCNC(=N)N)NC(=O)[C@H](CCCNC(=N)N)NC(=O)[C@H](CCCNC(=N)N)NC(=O)[C@H](CCCNC(=N)N)NC(=O)[C@H](CCCNC(=N)N)NC(=O)[C@H](CCCNC(=N)N)NC(=O)[C@H](CCCNC(=N)N)NC(=O)[C@H](CCCNC(=N)N)NC(=O)[C@@H](N)CCCNC(=N)N)[C@@H](C)CC)[C@@H](C)O)C(=O)N[C@H](C(=O)N[C@@H](CC(C)C)C(=O)N[C@@H](CCC(=O)O)C(=O)O)[C@@H](C)O [INH-1R] |  |  |  |  |  | pronounced p21 and MDM2 activation | 75 | less than 50% | increase in apoptosis | decrease in cell proliferation | able to penetrate the cell membrane, but also to actually enter the nucleus and co-localize with its target, p53 | up-regulation of p53 target genes only in tumor cells bearing aggregation-prone mutations | not observed | delay the aggregation onset and lower the total amount of aggregates present, in a concentration dependent fashion; also recorded: delayed the onset of aggregation and lowered the amount of aggregates present at all concentrations tested | a decrease in cell size and increase in granularity | Apoptosis as well as necrosis were induced specifically | failed to be recognized by the antibody PAb240 | decreasing in a dose dependent manner |
